Source: paper PMC8391236, “Effect of Pterostilbene, a Natural Derivative of Resveratrol, in the Treatment of Colorectal Cancer through Top1/Tdp1-Mediated DNA Repair Pathway” (Cancers, 2021)

How the values were obtained:
[1] = test system: HCoEpiC-; experiment: Proliferation of non-tumor cells (CCK-8); type: cell-based
Protocol: (§1) The final concentration of DMSO was less than 0.1%, and 0.1% DMSO as negative control. CPT, as Top1 inhibitor, was diluted to 0.5 μM [36, 37], and FM, as Tdp1 inhibitor was diluted to 25 μM [38]. Exponentially growing cells were seeded in 96-well plates (5 × 10^3 cells/well) for 12 h. Various drugs were added separately and incubated for 24, 48, and 72 h. Cell viability was determined by CCK-8 (Beyotime Biotechnology, Shanghai, China) assay. […]
(§2) The drug concentration required for inhibiting cell proliferation by 50% (IC50) was determined by interpolation from dose-response curves.

[2] = test system: L02; experiment: Proliferation of non-tumor cells (CCK-8); type: cell-based; conditions: Homo sapiens
Protocol: as §1, §2

[3] = test system: subcutaneous CL187 xenograft; experiment: Subcutaneous CL187 xenograft model; type: in vivo, BABLc/nude mice
Protocol: CL187 cell suspension was collected at 1 × 10^6 /mL, and 0.1 mL cell was inoculated into the right inguinal region of nude mice. The tumor was no metastasis. The diameter of the transplanted tumor in nude mice was measured with a vernier caliper. After 16-day inoculation (the tumor grew to 90 mm^3), the animals were randomly divided into 7 groups (6 mice per group). The drug was administered by intraperitoneal injection. Blank control group was injected with saline. […] According to the preliminary test results. […] Positive control group was injected with irinotecan (20 mg/kg) twice a week, During the experiment, the changes of body weight of nude mice were recorded, and the anti-tumor effect of the samples was dynamically investigated by measuring tumor diameter. On Day 31 post treatment, the nude mice were sacrificed, and the tumor blocks were removed surgically, weighed, and recorded.

[4] = test system: orthotopic CL187 xenograft; experiment: Orthotopic CL187 xenograft model; type: in vivo, BABLc/nude mice; conditions: for Tumor Weight: 21 days; for Ki67 labeling rate in tumor tissue: vector control 46.53±3.86%
Protocol: The mice were anaesthetized with 10% chloral hydrate and fixed on the operating table. After the abdomen of the mice was disinfected with iodine, a small section of the large intestine was squeezed out of the surgical opening. The 0.1 mL (per mouse) CL187 cell suspension (1 × 10^7 /mL) was inoculated into the colon wall of nude mice. After the inoculation, the large intestine was placed into the mouse abdominal cavity. After the wound was sutured, the mice were put into cages until they naturally woke up. After 10 days of inoculation, the animals were randomly divided into 4 groups (6 mice per group). Vector control group was intraperitoneally injected with 5% DMSO and 95% saline containing 30% HP-β-CD (i.p.). The drug dosage was designed according to the results of the previous pharmacokinetic experiment. Experimental Group 1 was intraperitoneal injected (i.p.) with PTE 100 mg/kg, and experiment Group 2 was intragastric administrated (i.g.) with PTE 500 mg/kg, once a day. The bioavailability of PTE was the same in the animals in the above regimens. Positive control group was injected with irinotecan, 20 mg/kg, twice a week. During the experiment, the changes of body weight of nude mice were recorded. After 21 days, the nude mice were sacrificed, the tumor blocks were removed surgically, weighed, and recorded.
Tumor and organ tissues were paraffin-embedded and sectioned into […] after being fixed in 4% of paraformaldehyde solution for 24 h. The sections were deparaffinized and rehydrated before detection. For histological observation, tumor sections were stained with hematoxylin and eosin (HE), and then observed by an inverted microscopy (Olympus, Japan).
For immunohistochemistry analysis, the sections were treated with 3% hydrogen peroxide for 10 min to block endogenous peroxidase, and then incubated with Ki67 primary antibody for overnight at 4 °C. Subsequently, the sections were treated with secondary antibody at room temperature for 20 min. After being washed with PBS, the sections were incubated with DAB chromogenic solution for 10 min, followed by rewashing in PBS. The sections were counterstained with hematoxylin after DAB coloration. The antibody specificity was confirmed by negative control without primary antibody treatment. Immunopositive areas were observed by an inverted microscope (Olympus, Japan).

[5] = test system: P53; experiment: Western blot for P53; type: cell-based, Human; conditions: CL187 cells, 12 h
Protocol: CL187 cells were treated with RE or PTE for 6 or 12 h, collected, and placed into lysis buffer (KeyGEN BioTECH, Nanjing, China). The total protein content in the cell lysates was measured using a BCA kit. Equivalent amount of total protein (30 μg) was loaded onto 10% SDS-PAGE gel. Electrophoresis was performed at 80 V for 25 min. After the sample went through concentrated gel, the voltage was adjusted to 120 V. Electrophoresis was stopped when the bromophenol blue band approached the bottom of the gel. After being transferred to PVDF membranes, the samples were incubated separately with 3 types of primary antibodies Top1, Tdp1, and P53 rabbit mAb (CST, Boston, MA, USA), followed by the incubation with secondary antibody goat anti-rabbit IgG (HRP)-conjugated (1:3000). ECL kit (New Cell and Molecular Biotech, Suzhou, China) was used for color development, and the images were collected by the gel imaging system (Tanon-5200, Shanghai, China).

[6] = test system: Tdp1 mRNA; experiment: qPCR of Tdp1 mRNA in cells; type: cell-based, Human; conditions: 6 h
Protocol: CL187 cells were treated with different concentrations of RE and PTE for 6, 12, 24 h, collected, and added with TRIzol (Thermo Fisher Scientific, Waltham, MA, USA). RNA was precipitated by isopropyl alcohol and washed with 75% ethanol prepared from diethylpyrocarbonate (DEPC) water. The obtained total RNA was dissolved in DEPC water and reverse transcribed into cDNA by a Hifair Ⅲ 1st strand cDNA Synthesis SuperMix for qPCR Kit (Yeasen Biotech, Shanghai, China). The resultant cDNA was used as a template, and the primer sequences were (5′→3′): Top1: F: […], R: […]; Tdp1: F: ACCAGAGTTCAGGAAGAAG, R: TCATAGAGCAGCAGCATC. GAPDH: F: […], R: TCTTCCTCTTGTGCTCTTG. Transcription levels of Top1, Tdp1, and GAPDH genes were determined by qPCR. The qPCR was performed as follows: 95 °C for 10 min, 40 cycles of 95 °C for 10 s, and 60 °C for 30 s. The cycle threshold (Ct) value was determined, and the RQ value was calculated.

[7] = 25 mg/kg i.p. once a day, Day 31
[8] = 50 mg/kg i.p. once a day, Day 31
[9] = 100 mg/kg i.p. once a day, Day 31
[10] = 200 mg/kg i.p. once a day, Day 31

SMILES: COc1cc(/C=C/c2ccc(O)cc2)cc(OC)c1 [PTE, 3,5-dimethoxy-4′-hydroxy-trans-stilbene]
- IC50 ([1]; 24 h): 444 µM
- IC50 ([1]; 48 h): 250 µM
- IC50 ([1]; 72 h): 83.4 µM
- IC50 ([2]; L02, 24 h): 478 µM
- IC50 ([2]; L02, 48 h): 248 µM
- IC50 ([2]; L02, 72 h): 148 µM
- Relative Tumor Proliferation Rate (T/C, %) [3, 7]: 53.53%
- Tumor Inhibitory Rate (TGI, %) [3, 7]: 54.24 ± 4.80%
- Tumor Volume [3, 7]: 1.725 ± 0.203 ** cm^3
- Tumor Weight [3, 7]: 1.60 ± 0.17 g
- TGI ([3]; 25 mg/kg, 31 days): 54.24 ± 4.80%
- Relative Tumor Proliferation Rate (T/C, %) [3, 8]: 39.56%
- Tumor Volume [3, 8]: 1.243 ± 0.189 *** cm^3
- Tumor Weight [3, 8]: 1.39 ± 0.19 g
- Relative Tumor Proliferation Rate (T/C, %) [3, 9]: 24.20%
- Tumor Volume [3, 9]: 0.779 ± 0.168 *** cm^3
- Tumor Weight [3, 9]: 0.96 ± 0.11 g
- Relative Tumor Proliferation Rate (T/C, %) [3, 10]: 20.71%
- Tumor Volume [3, 10]: 0.623 ± 0.158 *** cm^3
- Tumor Weight [3, 10]: 0.73 ± 0.09 g
- adverse reactions during the entire treatment process ([3]; subcutaneous CL187 xenograft nude mice, CPT-11 20 mg/kg, PTE 25-200 mg/kg i.p.): did not have the above-mentioned adverse reactions
- Tumor Weight ([4]; 100 mg/kg-i.p. once a day): 0.51 ± 0.12 g
- Ki67 labeling rate in tumor tissue ([4]; 100 mg/kg-i.p.): 4.89 ± 1.82%
- Tumor Weight ([4]; 500 mg/kg-i.g. once a day): 0.60 ± 0.06 g
- Ki67 labeling rate in tumor tissue ([4]; 500 mg/kg-i.g.): 12.03 ± 3.40%
- expression of P53 (WB) [5]: promoted the expression of P53
- Tdp1 mRNA expression ([6]; Tdp1-over CL187 cells): did not change significantly
- Tdp1 mRNA expression ([6]; siRNA-Top1 CL187 cells): inhibited without obvious trend
- Tdp1 mRNA expression ([6]; wild-type CL187 cells): significantly inhibited
